Holding throughout (type): binding
For assay [1], the target named is T1, NR2E3 (Homo sapiens, UniProt Q9Y5X4, R311Q).
T1 construct: MBP-NR2E3 LBD R311Q variant
T1 sequence (Q9Y5X4 164-410 R311Q): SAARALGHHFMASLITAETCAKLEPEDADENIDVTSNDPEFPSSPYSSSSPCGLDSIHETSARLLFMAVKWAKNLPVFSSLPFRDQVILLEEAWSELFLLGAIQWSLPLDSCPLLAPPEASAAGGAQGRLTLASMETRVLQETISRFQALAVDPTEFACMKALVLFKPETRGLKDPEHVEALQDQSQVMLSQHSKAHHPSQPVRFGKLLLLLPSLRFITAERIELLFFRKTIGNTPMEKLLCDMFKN
Put plainly: visible absorbance titration.

A further assay concerns the target T2, zebrafish NR2E3 (Danio rerio, UniProt Q5U3F3).
T2 construct: MBP-DrNR2E3 LBD
T2 sequence (Q5U3F3 178-419 limits assumed): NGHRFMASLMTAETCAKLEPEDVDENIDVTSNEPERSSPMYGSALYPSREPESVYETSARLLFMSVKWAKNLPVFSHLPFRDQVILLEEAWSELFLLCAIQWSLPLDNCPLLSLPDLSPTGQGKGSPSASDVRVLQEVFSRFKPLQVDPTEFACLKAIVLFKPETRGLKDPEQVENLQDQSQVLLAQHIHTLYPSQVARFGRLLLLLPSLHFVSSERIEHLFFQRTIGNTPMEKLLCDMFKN
Put plainly: visible absorbance titration.

The target of assay [2] is T3, NR2E3 (Homo sapiens, UniProt Q9Y5X4).
T3 construct: MBP-NR2E3 LBD (amino acid residues 164–410 of 410 residue NR2E3)
T3 sequence (Q9Y5X4 164-410): T1 sequence (Q9Y5X4 164-410 R311Q) with Q148R
Kind of assay: visible absorbance titration; also gel filtration co-purification with LC-MS.

SMILES strings stand for the structures. Where a chain is given by its changes, count along the chain named.

Usually Kd stands for a measure of binding affinity in units of concentration. A lower Kd goes with tighter binding. Turning to `C=CC1=C(C)/C(=C/C2=NC(=C\c3[nH]c(/C=C4\NC(=O)C(C)=C4C=C)c(C)c3CCC(=O)O)/C(CCC(=O)O)=C2C)NC1=O` [biliverdin], the Kd amounted to 9 µM at NR2E3 [1] and 0.2 µM on NR2E3 [2]. Besides, the visible absorbance titration entry on zebrafish NR2E3 was “the spectrum of biliverdin showed changes similar to the one observed with human NR2E3^LBD”.
